Experimental data as given in US10544112B2, “Identification of ebsulfur analogues with broad-spectrum antifungal activity” (priority 2017, dated 2020).
In brackets after ≈: the same amount, converted by molar mass. Where two headings read alike, the source gives them in different places.

Tests used:
[1] = tested on: C. albicans ATCC 64124 (strain B); test: microbe, parasite or virus in culture; format: cell-based, Candida albicans; conditions: strain B; compounds 1-4n and AmB; 48 h, RPMI 1640
Method: (§1) Fungal MIC determination experiments were performed using untreated 96-well plates (Corning). Cells were counted either by using a hemocytometer (Hausser Scientific, Horsham, Pa., USA) or by measuring optical density at attenuance of 600 nm (OD600) by using a Genesys 20 spectrophotometer (Thermo Scientific, Waltham, Mass., USA). Spectrophotometric and colorimetric measurements in 96-well plates were performed using a SpectraMax M5 spectrometer (Molecular Devices, Sunnyvale, Calif., USA).
(§2) Yeast strains Candida albicans ATCC 10231 (strain A), C. albicans ATCC 64124 (strain B), and C. albicans ATCC MYA-2876(S) (strain C) were kindly provided by Dr. Jon Y. Takemoto (Utah State University, Logan, UT, USA). C. albicans ATCC MYA-90819(R) (strain D), C. albicans ATCC MYA-2310(S) (strain E), C. albicans ATCC 1237(R) (strain F), C. albicans ATCC MYA-1003(R) (strain G), Candida glabrata ATCC 2001 (strain H), Candida krusei ATCC 6258 (strain I), and Candida parapsilosis ATCC 22019 (strain J) were obtained from the American Type Culture Collection (ATCC, Manassas, Va., USA). The (S) and (R) indicate that ATCC reports these strains to be susceptible (S) and resistant (R) to ITC and FLC. The filamentous fungal strains Aspergillus flavus ATCC MYA-3631 (strain K), and Aspergillus terreus ATCC MYA-3633 (strain M) were also obtained from the American Type Culture Collection (ATCC, Manassas, Va., USA). Aspergillus nidulans ATCC 38163 (strain L) was kindly provided by Dr. Jon S. Thorson (University of Kentucky, Lexington, Ky., USA), respectively. Yeast strains were cultured at 35° C. Filamentous fungal strains were cultured at 25° C. and the spores were harvested. All fungal strains were cultured in RPMI 1640 medium (catalog # R6504, Sigma-Aldrich Chemical Co., St. Louis, Mo.) buffered to pH 7.0 with 0.165 M morpholinepropanesulfonic acid (MOPS) buffer (Sigma-Aldrich Chemical Co.).
(§3) The MIC values against fungal strains were determined based on a previously published protocol. MIC values for ebsulfur (2a) analogues against fungal cells were evaluated in 96-well plates as described in the CLSI document M27-A3 with minor modifications. […] Therefore, potato dextrose broth (PDB) was used to grow the yeast inocula of all strains tested, which were later diluted in RPMI 1640 medium to perform determination of MIC values. […] The tested compounds (10 mg/mL) were diluted to the working stocks (500 μg/mL) by addition of DMSO. Two-fold serial dilution of the working stocks was prepared by addition of RPMI 1640 medium (100 μL) and cell suspension (100 μL) to 96-well microtiter plate to achieve final drug and inoculum concentrations ranging from 12.5-0.02 μg/mL and 5×10^3 CFU/mL, respectively. Plates were incubated for 48 h at 35° C. […]

[2] = tested on: C. albicans ATCC 90819(R) (strain D); test: microbe, parasite or virus in culture; format: cell-based, Candida albicans; conditions: strain D; compounds 1-4n and AmB; 48 h, RPMI 1640
Method: as §1, §2, §3

[3] = tested on: C. albicans ATCC MYA-1003(R) (strain G); test: microbe, parasite or virus in culture; format: cell-based, Candida albicans; conditions: strain G; compounds 1-4n and AmB; 48 h, RPMI 1640
Method: as §1, §2, §3

[4] = tested on: C. albicans ATCC MYA-1237(R) (strain F); test: microbe, parasite or virus in culture; format: cell-based, Candida albicans; conditions: strain F; compounds 1-4n and AmB; 48 h, RPMI 1640
Method: as §1, §2, §3

[5] = tested on: Candida albicans ATCC 10231 (strain A); test: Antifungal MIC determination (CLSI M27-A3, 96-well); format: cell-based; conditions: strain A; compounds 1-4n and AmB; 48 h, RPMI 1640
Method: as §1, §2, §3

[6] = tested on: Candida glabrata ATCC 2001 (strain H); test: as above; format: cell-based; conditions: strain H; compounds 1-4n and AmB; 48 h, RPMI 1640
Method: as §1, §2, §3

[7] = tested on: Candida krusei ATCC 6258 (strain I); test: as above; format: cell-based; conditions: strain I; compounds 1-4n and AmB; 48 h, RPMI 1640
Method: as §1, §2, §3

[8] = tested on: Candida parapsilosis ATCC 22019 (strain J); test: as above; format: cell-based; conditions: strain J; compounds 1-4n and AmB; 48 h, RPMI 1640
Method: as §1, §2, §3

[9] = tested on: Aspergillus flavus ATCC MYA-3631 (strain K); test: Antifungal MIC determination, filamentous fungi spores; format: cell-based; conditions: all compounds
Method: as §1, §2
(§4) The MIC values against fungal strains were determined based on a previously published protocol. MIC values for ebsulfur (2a) analogues against fungal cells were evaluated in 96-well plates as described in the CLSI document M27-A3 with minor modifications. […] Therefore, potato dextrose broth (PDB) was used to grow the yeast inocula of all strains tested, which were later diluted in RPMI 1640 medium to perform determination of MIC values. […] The tested compounds (10 mg/mL) were diluted to the working stocks (500 μg/mL) by addition of DMSO. Two-fold serial dilution of the working stocks was prepared by addition of RPMI 1640 medium (100 μL) and cell suspension (100 μL) to 96-well microtiter plate to achieve final drug and inoculum concentrations ranging from 12.5-0.02 μg/mL and 5×10^3 CFU/mL, respectively. Plates were incubated for 48 h at 35° C.
(§5) MIC assays for the spore-forming filamentous fungi, such as strain A. flavus ATCC MYA-3631 (strain K), were performed in a similar fashion. The filamentous fungal strains were first cultured at 25° C. on potato dextrose agar (PDA) plates for 3-5 days or until confluent. Spores were collected by washing the surface of the agar plates with dd H2O (5 mL) and then isolated the spores by gravity filtration (the spores are H2O soluble). […] Researchers working with spores should wear a facemask to prevent spore inhalation.

[10] = tested on: Aspergillus terreus ATCC MYA-3633 (strain M); test: as above; format: cell-based; conditions: strain M; all compounds; spores
Method: as §1, §2, §4, §5

[11] = tested on: Candida and Aspergillus strains; test: Antifungal MIC, summary over whole panel of fungal strains; format: cell-based; conditions: for antifungal activity after oxidizing the sulfur atom to sulfoxide: oxidized analogues
Method: as §1, §2, §3

[12] = tested on: C. albicans ATCC 64124 (strain B); format: cell-based, Candida albicans
Method: The efficiency of the compounds to kill C. albicans ATCC 64124 (strain B) was monitored using a previously published protocol. The cell suspensions were prepared to achieve an inoculum of approximately 1-4×10^5 CFU/mL in RPMI 1640 medium at 35° C. […] After fungal cell addition, at 0, 3, 6, 9, 12, and 24 h, the tubes were vortexed and 100 μL aliquots were removed from each solution, spread onto PDA plates, and incubated at 35° C. Colony counts were determined after 24 h of incubation. The experiments were performed in duplicate (FIG. 2).
Time-kill assays with ebsulfur (2a) and analogue 3a (FIG. 2) were performed to determine the rate of fungicidal activity of the compounds if the invention.

[13] = tested on: C. albicans ATCC MYA-2310(S) (strain E); test: Antifungal MIC determination (CLSI M27-A3, 96-well); format: cell-based, Candida albicans; conditions: strain E; compounds 1-4n and AmB; 48 h, RPMI 1640
Method: as §1, §2, §3

[14] = tested on: C. albicans ATCC MYA-2876(S) (strain C); test: as above; format: cell-based, Candida albicans; conditions: strain C; compounds 1-4n and AmB; 48 h, RPMI 1640
Method: as §1, §2, §3

[15] = tested on: Aspergillus nidulans ATCC 38163 (strain L); test: Antifungal MIC determination, filamentous fungi spores; format: cell-based; conditions: strain L; spores
Method: as §1, §2, §4, §5

[16] = tested on: C. albicans ATCC 10231 (strain A); test: ROS production assay (DCFH-DA); format: cell-based, Candida albicans; conditions: 1× and 2× MIC (H2O2 1 mM), 1-h treatment
Method: ROS production assay was performed as previously described with minor modifications. […] Once entering the cells, the DCFH-DA probe is first hydrolyzed to the non-fluorescent 2′,7′-dichlorodihydrofluorescein (DCFH) by cellular esterases. […] A colony of C. albicans ATCC 10231 (strain A) was used to inoculate 5 mL of PDB in a Falcon tube and grown overnight at 35° C. at 200 rpm.
Thus, whether the compounds of the invention would also induce ROS against C. albicans was studied. […] 2′,7′-dichlorodihydrofluorescin diacetate (DCFH-DA) was then used to detect and visualize ROS production (FIG. 5). As a positive control, cells were treated with H2O2, which is an inducer of hydroxyl radical formation.

Candida strains (A-J) = test: Antifungal MIC, summary over panel of Candida strains; format: cell-based; conditions: Candida strains A-J
Method: as §1, §2, §3

Compound	MIC-0 [1] [µg/mL]	MIC-0 [2] [µg/mL]	MIC-0 [3] [µg/mL]	MIC-0 [4] [µg/mL]	MIC-0 [5] [µg/mL]	MIC-0 [6] [µg/mL]	MIC-0 [7] [µg/mL]	MIC-0 [8] [µg/mL]	MIC-0 [9] [µg/mL]	MIC-0 [10] [µg/mL]	MIC values, range over the panel of fungal strains ([11]; Candida and Aspergillus strains, controls, tested herein or previously published) [µg/mL]	time from which completely fungicidal ([12]; 2× MIC) [h]	MIC-0 [13] [µg/mL]	MIC-0 [14] [µg/mL]	MIC-0 [15] [µg/mL]	fungicidal or fungistatic effect ([12]; 1× MIC)	fungicidal or fungistatic effect ([12]; 2× MIC)	ROS induction (DCFH-DA fluorescence) [16]	MIC values against Candida strains, range (Candida strains (A-J)) [µg/mL]	antifungal activity after oxidizing the sulfur atom to sulfoxide [11]
C[C@@H]1[C@H](O)[C@@H](C)/C=C/C=C/C=C/C=C/C=C/C=C/C=C/[C@H](O[C@@H]2O[C@H](C)[C@@H](O)[C@H](N)[C@@H]2O)C[C@@H]2O[C@](O)(C[C@@H](O)C[C@@H](O)[C@H](O)CC[C@@H](O)C[C@@H](O)CC(=O)O[C@H]1C)C[C@H](O)[C@H]2C(=O)O [AmB, amphotericin B, reference compound]	3.9 (≈ 4.22 µM)	0.98 (≈ 1.06 µM)	3.9 (≈ 4.22 µM)	3.9 (≈ 4.22 µM)	3.9 (≈ 4.22 µM)	1.95 (≈ 2.11 µM)	3.9 (≈ 4.22 µM)	1.95 (≈ 2.11 µM)	15.6 (≈ 16.9 µM)	3.9 (≈ 4.22 µM)	0.98 to 15.6	6								
O=c1c2ccccc2sn1-c1ccccc1 [Compound 2a, ebsulfur]		3.13 (≈ 13.8 µM)	>12.5	>12.5	12.5 (≈ 55 µM)	6.25 (≈ 27.5 µM)	3.13 (≈ 13.8 µM)	12.5 (≈ 55 µM)	6.25 (≈ 27.5 µM)	6.25 (≈ 27.5 µM)			6.25 (≈ 27.5 µM)	12.5 (≈ 55 µM)	6.25 (≈ 27.5 µM)	fungistatic	fungicidal	highly fluorescent		
O=c1c2ccccc2sn1C1CCCC1 [Compound 3k]	1.56 (≈ 7.11 µM)	0.39 (≈ 1.78 µM)	0.78 (≈ 3.56 µM)	0.39 (≈ 1.78 µM)	0.39 (≈ 1.78 µM)	0.78 (≈ 3.56 µM)	0.39 (≈ 1.78 µM)	1.56 (≈ 7.11 µM)	0.20 (≈ 0.912 µM)	0.10 (≈ 0.456 µM)			0.39 (≈ 1.78 µM)	0.78 (≈ 3.56 µM)	0.10 (≈ 0.456 µM)				0.39 to 1.56	
O=c1c2ccccc2sn1C1CCCCC1 [Compound 3l]	1.56 (≈ 6.69 µM)	0.78 (≈ 3.34 µM)	1.56 (≈ 6.69 µM)	0.78 (≈ 3.34 µM)	0.78 (≈ 3.34 µM)	1.56 (≈ 6.69 µM)	0.78 (≈ 3.34 µM)	1.56 (≈ 6.69 µM)	0.20 (≈ 0.857 µM)	0.20 (≈ 0.857 µM)			1.56 (≈ 6.69 µM)	3.13 (≈ 13.4 µM)	0.20 (≈ 0.857 µM)				0.78 to 3.13	
CC(C)Cn1c(=O)c2ccccc2[s+]1[O-] (centres unmarked) [Compound 4e]	>12.5	>12.5	>12.5	>12.5	>12.5	>12.5	>12.5	>12.5	>12.5	>12.5			>12.5	>12.5	>12.5					completely abolished
CC(C)CCn1c(=O)c2ccccc2[s+]1[O-] (centres unmarked) [Compound 4f]	>12.5	>12.5	>12.5	>12.5	>12.5	>12.5	>12.5	>12.5	>12.5	>12.5			>12.5	>12.5	>12.5					completely abolished
O=c1c2ccccc2[s+]([O-])n1C1CCCCCCC1 (centres unmarked) [Compound 4n]	>12.5	>12.5	>12.5	>12.5	>12.5	>12.5	>12.5	>12.5	>12.5	>12.5			>12.5	>12.5	>12.5					completely abolished
OO [Compound H2O2, H2O2, reference compound]																		highly fluorescent		
